In US20180360917A1, “SINCALIDE FORMULATIONS AND METHODS OF USE” (Apicore LLC, priority 2017, published 2018):

Experiments:
gallbladder = settings: typical, patient pretreated before hepatobiliary imaging; cited from earlier work
[1] = Oxidation of Sincalide methionine residues by trace metals with and without EDTA; type: physicochemical
From the text: Excipient impurities and/or stopper extractables can introduce trace metals into pharmaceutical formulations. Embodiments of the Sincalide formulations disclosed herein contain stabilizerichelator to inhibit the oxidation of the two methionine residues present in Sincalide (Met 3 and Met 6). Preferred chelators include edetic acid (EDTA) and derivatives thereof, including salts. […] In particular, copper and manganese, in the absence of EDTA, have the greatest oxidative effect on the methionine residues of Sincalide.

[2] = Stability of Sincalide in 35 mM phosphate buffer over pH 3.0-9.1 (recovery by RP-HPLC); type: physicochemical
Procedure: Experiments were conducted to determine the effect of pH on the chemical stability of Sincalide. Chemical instability, or degradation, may be caused by, for example, oxidation, reduction, de-amidation, hydrolysis, imide formation, racemization, isomerization, and/or β-elimination. To examine the effect of pH on Sincalide in phosphate buffer solution, solutions of Sincalide (˜1.7, μg/mL) were prepared in 35 mM phosphate buffer and pH-adjusted with either dilute HCl or NaOH for final pH values ranging from 3.0-9.1. Using reverse-phase HPLC (RP-HPLC) with gradient elution and UV detection at 215 nm, Sincalide stability in solution was assessed by measuring the recovery of Sincalide at 0, 6, and 24 hours after pH adjustment.
A 24-hour study on the stability of Sincalide in phosphate buffer over the pH range of 3.0-9.1 was conducted. By measure of the percentage recovery, Sincalide was stable in 35 mM phosphate buffer solution at pH values ranging from 5.0-9.1 over a 24-hour period. At pH values <5.0, Sincalide degradation was evident even at the initial time point.

SMILES: CSCC[C@H](NC(=O)[C@H](Cc1ccc(OS(=O)(=O)O)cc1)NC(=O)[C@@H](N)CC(=O)O)C(=O)NCC(=O)N[C@@H](Cc1c[nH]c2ccccc12)C(=O)N[C@@H](CCSC)C(=O)N[C@@H](CC(=O)O)C(=O)N[C@@H](Cc1ccccc1)C(N)=O [Sincalide, 1-De(5-oxo-L-glutamine-5-L-proline)-2-de-L-me-thioninecaerulein]
- time to gallbladder contraction after injection (gallbladder): ≤ 15 min
- formation of Sincalide Met 3 and Met 6 mono sulfoxides ([1]; presence of EDTA): inhibitory effect
- amounts of the degradants Sincalide Met 3 and Met 6 mono sulfoxides ([1]; presence of certain metals, absence of EDTA, copper and manganese greatest oxidative effect): increase
- pH values at which Sincalide was stable, by percentage recovery ([2]; 35 mM phosphate buffer solution, over a 24-hour period, RP-HPLC UV 215 nm): 5.0-9.1
- pH values at which Sincalide degradation was evident ([2]; 35 mM phosphate buffer, even at the initial time point): < 5.0
